Source: US8901316B2, “Process for preparing aminoadamantyl carbamate derivatives” (Shionogi & Co., Ltd., priority 2010, dated 2014)

Assay: stability to temperature and humidity changes (storage/handling)
Assay type: physicochemical
Details: solid; storage without desiccant agent or without being sealed

Q: With “aminoadamantane carbamate hydrochloride dihydrate [III-2]” as the substance, how does the “stability to temperature and humidity changes” value read?
A: stable to temperature and humidity changes
